This passage reports IC50 results from BindingDB's records for doi:10.1016/j.ejmech.2012.05.016 (Piramal Healthcare, 2012).

In general, IC50 refers to the point on the concentration scale where inhibition reaches its midpoint.

The target of the test is DGAT1 (Homo sapiens). In words: Inhibition of human DGAT1 assessed as conversion of [14C]-oleoyl-CoA to [14C]-triglyceride after 10 mins by scintillation counting.
`CC(C)[C@H](NC(=O)c1cc(-c2ccc(NC(=O)Nc3cc(F)cc(F)c3)cc2)no1)C(=O)O`: the IC50 was determined as 75 nM.
To `CC(C)[C@H](NC(=O)c1ncc(-c2ccc(NC(=O)Nc3ccc(Cl)cc3Oc3ccccc3)cc2)o1)C(=O)O` belongs 230 nM; to `CC(C)[C@H](NC(=O)c1cc(-c2ccc(NC(=O)Nc3ccc(Cl)cc3F)cc2)no1)C(=O)O`, 24 nM; to `CC(C)[C@H](NC(=O)c1ncc(-c2ccc(NC(=O)Nc3ccccc3Cl)cc2)o1)C(=O)O`, 282 nM.
Consider `CC(C)[C@H](NC(=O)c1cc(-c2ccc(NC(=O)Nc3cc(F)ccc3F)cc2)no1)C(=O)O`, for which the IC50 came out at 141 nM.
As for `Cc1cc(C)cc(NC(=O)Nc2ccc(-c3cc(C(=O)N[C@H](C(=O)O)C(C)C)on3)cc2)c1`, the IC50 amounted to 114 nM.
Turning to `CC(C)[C@H](NC(=O)c1cc(-c2ccc(NC(=O)Nc3ccc(F)cc3)cc2)no1)C(=O)O`, the IC50 was 60 nM.
For the compound `Cc1ccc(NC(=O)Nc2ccc(-c3cc(C(=O)N[C@H](C(=O)O)C(C)C)on3)cc2)cc1F`, the IC50 is 178 nM.
Consider `CC(C)[C@H](NC(=O)c1cc(-c2ccc(Nc3nc4ccc(F)cc4s3)cc2)no1)C(=O)O`, for which the IC50 was 120 nM.
As for `CC(C)[C@H](NC(=O)c1cc(-c2ccc(NC(=O)Nc3cccc(Cl)c3)cc2)no1)C(=O)O`, the figure is 45 nM; as for `Cc1ccccc1NC(=O)Nc1ccc(-c2cc(C(=O)N[C@H](C(=O)O)C(C)C)on2)cc1`, 84 nM.
As for `CC(C)[C@H](NC(=O)c1cc(-c2ccc(NC(=O)Nc3cccc(C(F)(F)F)c3)cc2)no1)C(=O)O`, the IC50 came out at 66 nM.
`CC(C)[C@H](NC(=O)c1nc(-c2ccc(NC(=O)Nc3ccc(F)cc3F)cc2)no1)C(=O)O`: the IC50 amounted to 259 nM.
As to `CC(C)[C@H](NC(=O)c1cc(-c2ccc(NC(=O)Nc3ccc(Cl)cc3)cc2)no1)C(=O)O`, the IC50 stood at 124 nM.
Consider `CC(C)[C@H](NC(=O)c1cc(-c2ccc(NC(=O)Nc3ccccc3F)cc2)no1)C(=O)O`, for which the IC50 came to 141 nM.
Turning to `CC(C)[C@H](NC(=O)c1cc(-c2ccc(NC(=O)Nc3ccc(F)c(F)c3)cc2)no1)C(=O)O`, the IC50 turned out to be 75 nM.
Take `CC(C)[C@H](NC(=O)c1cc(-c2ccc(NC(=O)Nc3ccccc3Cl)cc2)no1)C(=O)O`: the IC50 was found to be 44 nM.
With `Cc1ccc(NC(=O)Nc2ccc(-c3cc(C(=O)N[C@H](C(=O)O)C(C)C)on3)cc2)cc1`, the IC50 came out at 61 nM.
Consider `CC(C)[C@H](NC(=O)c1ncc(-c2ccc(NC(=O)Nc3cccc(C(F)(F)F)c3)cc2)o1)C(=O)O`, for which the IC50 was 458 nM.
On to `CC(C)[C@H](NC(=O)c1cc(-c2ccc(NC(=O)Nc3ccc(Cl)cc3Oc3ccccc3)cc2)no1)C(=O)O`, for which the IC50 turned out to be 86 nM.
As to `CC(C)[C@H](NC(=O)c1cc(-c2ccc(NC(=O)Nc3ccc(F)cc3F)cc2)no1)C(=O)O`, the IC50 is 62 nM.
As for `CC(C)[C@H](NC(=O)c1cc(-c2ccc(NC(=O)Nc3c(F)cccc3F)cc2)no1)C(=O)O`, the IC50 is 185 nM.
For the compound `Cc1cc(F)ccc1NC(=O)Nc1ccc(-c2cc(C(=O)N[C@H](C(=O)O)C(C)C)on2)cc1`, the IC50 came to 90 nM.
